{"source": "patent US9260439B2", "about": "“Dihydropyrrolopyrimidine derivatives” (PFIZER INC., priority 2014, dated 2016)", "molecular_target": "truncated PI3Kα (p110α/iSH2 p85α) (Homo sapiens (Human), UniProt P42336)", "sequence (P42336 whole entry, the tested form may be a part)": "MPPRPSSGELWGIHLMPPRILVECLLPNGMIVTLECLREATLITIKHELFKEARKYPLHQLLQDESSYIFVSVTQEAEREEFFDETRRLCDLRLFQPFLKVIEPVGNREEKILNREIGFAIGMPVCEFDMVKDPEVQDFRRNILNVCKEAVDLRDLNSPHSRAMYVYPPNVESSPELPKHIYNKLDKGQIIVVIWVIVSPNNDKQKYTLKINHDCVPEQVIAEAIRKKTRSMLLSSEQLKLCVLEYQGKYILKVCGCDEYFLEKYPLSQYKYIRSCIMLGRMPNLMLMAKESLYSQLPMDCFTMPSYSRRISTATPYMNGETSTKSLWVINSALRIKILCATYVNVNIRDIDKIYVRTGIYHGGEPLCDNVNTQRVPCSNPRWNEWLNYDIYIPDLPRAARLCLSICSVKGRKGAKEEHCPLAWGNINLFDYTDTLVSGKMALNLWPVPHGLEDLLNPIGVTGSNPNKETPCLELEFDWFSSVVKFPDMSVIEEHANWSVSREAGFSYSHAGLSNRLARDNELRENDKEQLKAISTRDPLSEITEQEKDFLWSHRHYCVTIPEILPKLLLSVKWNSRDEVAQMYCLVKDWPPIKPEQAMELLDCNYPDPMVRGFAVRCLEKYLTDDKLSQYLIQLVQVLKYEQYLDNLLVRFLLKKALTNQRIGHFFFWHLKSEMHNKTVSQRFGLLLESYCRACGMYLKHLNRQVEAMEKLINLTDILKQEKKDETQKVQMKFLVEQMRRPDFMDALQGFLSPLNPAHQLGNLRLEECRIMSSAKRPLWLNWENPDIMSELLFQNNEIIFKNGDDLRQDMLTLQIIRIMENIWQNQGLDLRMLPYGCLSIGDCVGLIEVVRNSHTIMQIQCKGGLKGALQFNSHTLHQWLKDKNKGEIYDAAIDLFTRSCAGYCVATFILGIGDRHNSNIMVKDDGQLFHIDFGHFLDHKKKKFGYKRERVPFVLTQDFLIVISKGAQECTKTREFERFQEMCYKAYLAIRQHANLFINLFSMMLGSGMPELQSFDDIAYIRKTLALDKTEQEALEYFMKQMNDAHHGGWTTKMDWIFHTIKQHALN", "assay": "PI3KA_Act fluorescence polarization kinase assay (Ki)", "format": "biochemical", "details": "1 mM ATP", "how_it_was_run": "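p110α/iSH2 p85α (0.5 nM) was reacted with 30 μM sonicated PIP2 in 50 mM HEPES pH 7.4, 150 mM NaCl, 5 mM MgCl2, 1 mM DTT and 0.05% CHAPS for 30 min at room temperature, then stopped with EDTA. PIP3 was detected by fluorescence polarization (GST-Grp1 PH domain/TAMRA-PIP3), and Ki came from a Morrison tight-binding fit.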"}
{"molecule": "CNC(=O)N1CC(C)(N2CCc3c(-c4cnc(N)nc4)nc(N4CCOC[C@@H]4C)nc32)C1", "note": "[Example 462, 3-{4-(2-aminopyrimidin-5-yl)-2-[(3S)-3-methylmorpholin-4-yl]-5,6-dihydro-7H-pyrrolo[2,3-d]pyrimidin-7-yl}-N,3-dimethylazetidine-1-carboxamide]", "values": [{"measurement": "PI3KA_Act Ki", "result": 0.057, "unit": "nM"}]}
{"molecule": "C[C@H]1COCCN1c1nc(-c2cnc(N)nc2)c2c(n1)N(C1CN(S(=O)(=O)C3CCC3)C1)CC2", "note": "[Example 463, 5-{7-[1-(cyclobutylsulfonyl)azetidin-3-yl]-2-[(3S)-3-methylmorpholin-4-yl]-6,7-dihydro-5H-pyrrolo[2,3-d]pyrimidin-4-yl}pyrimidin-2-amine]", "values": [{"measurement": "PI3KA_Act Ki", "result": 0.169, "unit": "nM"}]}
{"molecule": "C[C@H]1COCCN1c1nc(-c2cnc(N)nc2)c2c(n1)N(C1CN(S(=O)(=O)N3CCC3)C1)CC2", "note": "[Example 464, 5-{7-[1-(azetidin-1-ylsulfonyl)azetidin-3-yl]-2-[(3S)-3-methylmorpholin-4-yl]-6,7-dihydro-5H-pyrrolo[2,3-d]pyrimidin-4-yl}pyrimidin-2-amine]", "values": [{"measurement": "PI3KA_Act Ki", "result": 0.193, "unit": "nM"}]}
{"molecule": "C[C@H]1COCCN1c1nc(-c2cnc(N)nc2)c2c(n1)N([C@@]1(C)CCNC1)CC2.Cl", "note": "[Example 465, 5-{2-[(3S)-3-methylmorpholin-4-yl]-7-[(3S)-3-methylpyrrolidin-3-yl]-6,7-dihydro-5H-pyrrolo[2,3-d]pyrimidin-4-yl}pyrimidin-2-amine hydrochloride]", "values": [{"measurement": "PI3KA_Act Ki", "result": 0.160, "unit": "nM"}]}
{"molecule": "C[C@H]1COCCN1c1nc(-c2cnc(N)nc2)c2c(n1)N([C@]1(C)CCNC1)CC2.Cl", "note": "[Example 466, 5-{2-[(3S)-3-methylmorpholin-4-yl]-7-[(3R)-3-methylpyrrolidin-3-yl]-6,7-dihydro-5H-pyrrolo[2,3-d]pyrimidin-4-yl}pyrimidin-2-amine hydrochloride]", "values": [{"measurement": "PI3KA_Act Ki", "result": 0.303, "unit": "nM"}]}
{"molecule": "C[C@@H]1CNC[C@@]1(C)N1CCc2c(-c3cnc(N)nc3)nc(N3CCOC[C@@H]3C)nc21.Cl", "note": "[Example 467, 5-{7-[(3S,4R)-3,4-dimethylpyrrolidin-3-yl]-2-[(3S)-3-methylmorpholin-4-yl]-6,7-dihydro-5H-pyrrolo[2,3-d]pyrimidin-4-yl}pyrimidin-2-amine hydrochloride]", "values": [{"measurement": "PI3KA_Act Ki", "result": 0.106, "unit": "nM"}]}
{"molecule": "C[C@H]1COCCN1c1nc(-c2cnc(N)nc2)c2c(n1)N([C@@]1(C)CNC[C@@H]1C)CC2.Cl", "note": "[Example 468, 5-{7-[(3R,4S)-3,4-dimethylpyrrolidin-3-yl]-2-[(3S)-3-methylmorpholin-4-yl]-6,7-dihydro-5H-pyrrolo[2,3-d]pyrimidin-4-yl}pyrimidin-2-amine hydrochloride]", "values": [{"measurement": "PI3KA_Act Ki", "result": 0.634, "unit": "nM"}]}
{"molecule": "CC(=O)N1CC[C@](C)(N2CCc3c(-c4cnc(N)nc4)nc(N4CCOC[C@@H]4C)nc32)C1", "note": "[Example 469, 1-[(3S)-3-{4-(2-aminopyrimidin-5-yl)-2-[(3S)-3-methylmorpholin-4-yl]-5,6-dihydro-7H-pyrrolo[2,3-d]pyrimidin-7-yl}-3-methylpyrrolidin-1-yl]ethanone]", "values": [{"measurement": "PI3KA_Act Ki", "result": 0.052, "unit": "nM"}]}
{"molecule": "CC(=O)N1CC[C@@](C)(N2CCc3c(-c4cnc(N)nc4)nc(N4CCOC[C@@H]4C)nc32)C1", "note": "[Example 470, 1-[(3R)-3-{4-(2-aminopyrimidin-5-yl)-2-[(3S)-3-methylmorpholin-4-yl]-5,6-dihydro-7H-pyrrolo[2,3-d]pyrimidin-7-yl}-3-methylpyrrolidin-1-yl]ethanone]", "values": [{"measurement": "PI3KA_Act Ki", "result": 0.070, "unit": "nM"}]}
{"molecule": "C[C@@H](O)C(=O)N1CC[C@](C)(N2CCc3c(-c4cnc(N)nc4)nc(N4CCOC[C@@H]4C)nc32)C1", "note": "[Example 471, (2R)-1-[(3S)-3-{4-(2-aminopyrimidin-5-yl)-2-[(3S)-3-methylmorpholin-4-yl]-5,6-dihydro-7H-pyrrolo[2,3-d]pyrimidin-7-yl}-3-methylpyrrolidin-1-yl]-2-hydroxypropan-1-one]", "values": [{"measurement": "PI3KA_Act Ki", "result": 0.037, "unit": "nM"}]}
{"molecule": "CC(C)[C@@H](O)C(=O)N1CC[C@](C)(N2CCc3c(-c4cnc(N)nc4)nc(N4CCOC[C@@H]4C)nc32)C1", "note": "[Example 472, (2R)-1-[(3S)-3-{4-(2-aminopyrimidin-5-yl)-2-[(3S)-3-methylmorpholin-4-yl]-5,6-dihydro-7H-pyrrolo[2,3-d]pyrimidin-7-yl}-3-methylpyrrolidin-1-yl]-2-hydroxy-3-methylbutan-1-one]", "values": [{"measurement": "PI3KA_Act Ki", "result": 0.044, "unit": "nM"}]}
{"molecule": "C[C@H]1COCCN1c1nc(-c2cnc(N)nc2)c2c(n1)N([C@@]1(C)CCN(C(=O)C(C)(C)O)C1)CC2", "note": "[Example 473, 1-[(3S)-3-{4-(2-aminopyrimidin-5-yl)-2-[(3S)-3-methylmorpholin-4-yl]-5,6-dihydro-7H-pyrrolo[2,3-d]pyrimidin-7-yl}-3-methylpyrrolidin-1-yl]-2-hydroxy-2-methylpropan-1-one]", "values": [{"measurement": "PI3KA_Act Ki", "result": 0.076, "unit": "nM"}]}
{"molecule": "C[C@H]1COCCN1c1nc(-c2cnc(N)nc2)c2c(n1)N([C@@]1(C)CCN(C(=O)C(C)(C)CO)C1)CC2.Cl", "note": "[Example 474, 1-[(3S)-3-{4-(2-aminopyrimidin-5-yl)-2-[(3S)-3-methylmorpholin-4-yl]-5,6-dihydro-7H-pyrrolo[2,3-d]pyrimidin-7-yl}-3-methylpyrrolidin-1-yl]-3-hydroxy-2,2-dimethylpropan-1-one hydrochloride]", "values": [{"measurement": "PI3KA_Act Ki", "result": 0.045, "unit": "nM"}]}
{"molecule": "C[C@H](N)C(=O)N1CC[C@](C)(N2CCc3c(-c4cnc(N)nc4)nc(N4CCOC[C@@H]4C)nc32)C1.Cl", "note": "[Example 475, (2S)-2-amino-1-[(3S)-3-{4-(2-aminopyrimidin-5-yl)-2-[(3S)-3-methylmorpholin-4-yl]-5,6-dihydro-7H-pyrrolo[2,3-d]pyrimidin-7-yl}-3-methylpyrrolidin-1-yl]propan-1-one hydrochloride]", "values": [{"measurement": "PI3KA_Act Ki", "result": 0.068, "unit": "nM"}]}
{"molecule": "C[C@@H](N)C(=O)N1CC[C@](C)(N2CCc3c(-c4cnc(N)nc4)nc(N4CCOC[C@@H]4C)nc32)C1.Cl", "note": "[Example 476, (2R)-2-amino-1-[(3S)-3-{4-(2-aminopyrimidin-5-yl)-2-[(3S)-3-methylmorpholin-4-yl]-5,6-dihydro-7H-pyrrolo[2,3-d]pyrimidin-7-yl}-3-methylpyrrolidin-1-yl]propan-1-one hydrochloride]", "values": [{"measurement": "PI3KA_Act Ki", "result": "<0.018", "unit": "nM"}]}
{"molecule": "CC[C@H](N)C(=O)N1CC[C@](C)(N2CCc3c(-c4cnc(N)nc4)nc(N4CCOC[C@@H]4C)nc32)C1.Cl", "note": "[Example 477, (2S)-2-amino-1-[(3S)-3-{4-(2-aminopyrimidin-5-yl)-2-[(3S)-3-methylmorpholin-4-yl]-5,6-dihydro-7H-pyrrolo[2,3-d]pyrimidin-7-yl}-3-methylpyrrolidin-1-yl]butan-1-one hydrochloride]", "values": [{"measurement": "PI3KA_Act Ki", "result": 0.038, "unit": "nM"}]}
{"molecule": "CC[C@@H](N)C(=O)N1CC[C@](C)(N2CCc3c(-c4cnc(N)nc4)nc(N4CCOC[C@@H]4C)nc32)C1.Cl", "note": "[Example 478, (2R)-2-amino-1-[(3S)-3-{4-(2-aminopyrimidin-5-yl)-2-[(3S)-3-methylmorpholin-4-yl]-5,6-dihydro-7H-pyrrolo[2,3-d]pyrimidin-7-yl}-3-methylpyrrolidin-1-yl]butan-1-one hydrochloride]", "values": [{"measurement": "PI3KA_Act Ki", "result": 0.026, "unit": "nM"}]}
{"molecule": "C[C@H]1COCCN1c1nc(-c2cnc(N)nc2)c2c(n1)N([C@@]1(C)CCN(C(=O)[C@@H](N)CF)C1)CC2.Cl", "note": "[Example 479, (2R)-2-amino-1-[(3S)-3-{4-(2-aminopyrimidin-5-yl)-2-[(3S)-3-methylmorpholin-4-yl]-5,6-dihydro-7H-pyrrolo[2,3-d]pyrimidin-7-yl}-3-methylpyrrolidin-1-yl]-3-fluoropropan-1-one hydrochloride]", "values": [{"measurement": "PI3KA_Act Ki", "result": 0.026, "unit": "nM"}]}
{"molecule": "C[C@H]1COCCN1c1nc(-c2cnc(N)nc2)c2c(n1)N([C@@]1(C)CCN(C(=O)[C@H](N)CF)C1)CC2.Cl", "note": "[Example 480, (2S)-2-amino-1-[(3S)-3-{4-(2-aminopyrimidin-5-yl)-2-[(3S)-3-methylmorpholin-4-yl]-5,6-dihydro-7H-pyrrolo[2,3-d]pyrimidin-7-yl}-3-methylpyrrolidin-1-yl]-3-fluoropropan-1-one hydrochloride]", "values": [{"measurement": "PI3KA_Act Ki", "result": "<0.018", "unit": "nM"}]}
{"molecule": "C[C@H]1COCCN1c1nc(-c2cnc(N)nc2)c2c(n1)N([C@@]1(C)CCN(C(=O)[C@@H](N)C3CC3)C1)CC2.Cl", "note": "[Example 481, (2S)-2-amino-1-[(3S)-3-{4-(2-aminopyrimidin-5-yl)-2-[(3S)-3-methylmorpholin-4-yl]-5,6-dihydro-7H-pyrrolo[2,3-d]pyrimidin-7-yl}-3-methylpyrrolidin-1-yl]-2-cyclopropylethanone hydrochloride]", "values": [{"measurement": "PI3KA_Act Ki", "result": 0.149, "unit": "nM"}]}
{"molecule": "C[C@H]1COCCN1c1nc(-c2cnc(N)nc2)c2c(n1)N([C@@]1(C)CCN(C(=O)[C@H](N)C3CC3)C1)CC2.Cl", "note": "[Example 482, (2R)-2-amino-1-[(3S)-3-{4-(2-aminopyrimidin-5-yl)-2-[(3S)-3-methylmorpholin-4-yl]-5,6-dihydro-7H-pyrrolo[2,3-d]pyrimidin-7-yl}-3-methylpyrrolidin-1-yl]-2-cyclopropylethanone hydrochloride]", "values": [{"measurement": "PI3KA_Act Ki", "result": 0.022, "unit": "nM"}]}
{"molecule": "C[C@H]1COCCN1c1nc(-c2cnc(N)nc2)c2c(n1)N([C@@]1(C)CCN(C(=O)CN(C)C)C1)CC2", "note": "[Example 483, 1-[(3S)-3-{4-(2-aminopyrimidin-5-yl)-2-[(3S)-3-methylmorpholin-4-yl]-5,6-dihydro-7H-pyrrolo[2,3-d]pyrimidin-7-yl}-3-methylpyrrolidin-1-yl]-2-(dimethylamino)ethanone]", "values": [{"measurement": "PI3KA_Act Ki", "result": 0.049, "unit": "nM"}]}
{"molecule": "C[C@H]1COCCN1c1nc(-c2cnc(N)nc2)c2c(n1)N([C@@]1(C)CCN(C(=O)C(C)(C)CN)C1)CC2.Cl", "note": "[Example 484, 3-amino-1-[(3S)-3-{4-(2-aminopyrimidin-5-yl)-2-[(3S)-3-methylmorpholin-4-yl]-5,6-dihydro-7H-pyrrolo[2,3-d]pyrimidin-7-yl}-3-methylpyrrolidin-1-yl]-2,2-dimethylpropan-1-one hydrochloride]", "values": [{"measurement": "PI3KA_Act Ki", "result": "<0.018", "unit": "nM"}]}
